Assay results as given in patent publication US10821115B2, “Compounds that inhibit Mcl-1 protein” (priority 2017, dated 2020).

Legend:
[1] = target: recombinant human Mcl-1 (residues 171-327) / Bim interaction (Homo sapiens (Human), UniProt Q07820); assay: biochemical; assay type: binding; conditions: TR-FRET, Mcl-1(171-327) / biotin-Bim (51-76); read-out: Mcl-1 HTRF IC50
[2] = test system: human multiple myeloma cell line, OPM-2; assay: Cell viability assay (OPM-2 10 FBS), CellTiter-Glo; assay type: cell-based; conditions: Homo sapiens, OPM-2, 16 h, read-out: OPM-2 10% FBS IC50 IP, OPM-2 cells, 10% FBS, 16 h, CellTiter-Glo
Procedure, shortened: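 3000 cells/well, RPMI 1640 + 10% FBS; serial compound dilutions, 16 h, 37 °C/5% CO2.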

recombinant human Mcl-1 (residues 171-327) / Bim interaction, sequence (Q07820 171-327): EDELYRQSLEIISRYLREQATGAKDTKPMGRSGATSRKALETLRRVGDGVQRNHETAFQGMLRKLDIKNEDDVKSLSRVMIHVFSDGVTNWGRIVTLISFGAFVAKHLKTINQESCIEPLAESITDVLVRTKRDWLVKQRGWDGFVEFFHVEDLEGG

Structure (SMILES) | IC50 [1] [nM] | IC50 [2] [nM]
CC[C@@H]1CCCC[C@@](O)(CO)[C@@H]2CC[C@H]2CN2C[C@@]3(CCCc4cc(Cl)ccc43)COc3ccc(cc32)C(=O)NS1(=O)=O [Example 100035, (1S,3′R,6′R,7′S,12′R)-6-chloro-12′-ethyl-7′-hydroxy-7′-(hydroxymethyl)-3,4-dihydro-2H,15′H-spiro[naphthalene-1,22′-[20]oxa[13]thia[1,14]diazatetracyclo [14.7.2.0~3,6~.0~19,24~]pentacosa[16,18,24]trien]-15′-one 13′,13′-dioxide] | 0.601 | 1470
CC[C@@H]1CCCC[C@](O)(CO)[C@@H]2CC[C@H]2CN2C[C@@]3(CCCc4cc(Cl)ccc43)COc3ccc(cc32)C(=O)NS1(=O)=O [Example 100036, (1S,3′R,6′R,7′R,12′R)-6-chloro-12′-ethyl-7′-hydroxy-7′-(hydroxymethyl)-3,4-dihydro-2H,15′H-spiro[naphthalene-1,22′-[20]oxa[13]thia[1,14]diazatetracyclo [14.7.2.0~3,6~.0~19,24~]pentacosa[16,18,24]trien]-15′-one 13′,13′-dioxide] | 0.889 | 1980
CC[C@@H]1CCCC[C@](COC)(OC)[C@@H]2CC[C@H]2CN2C[C@@]3(CCCc4cc(Cl)ccc43)COc3ccc(cc32)C(=O)NS1(=O)=O [Example 100037, (1S,3′R,6′R,7′S,12′R)-6-chloro-12′-ethyl-7′-methoxy-7′-(methoxymethyl)-3,4-dihydro-2H,15′H-spiro[naphthalene-1,22′-[20]oxa[13]thia[1,14]diazatetracyclo [14.7.2.0~3,6~.0~19,24~]pentacosa[16,18,24]trien]-15′-one 13′,13′-dioxide] | 1.8 | 1920
CC[C@@H]1CCCC[C@@](COC)(OC)[C@@H]2CC[C@H]2CN2C[C@@]3(CCCc4cc(Cl)ccc43)COc3ccc(cc32)C(=O)NS1(=O)=O [Example 100038, (1S,3′R,6′R,7′R,12′R)-6-chloro-12′-ethyl-7′-methoxy-7′-(methoxymethyl)-3,4-dihydro-2H,15′H-spiro[naphthalene-1,22′-[20]oxa[13]thia[1,14]diazatetracyclo [14.7.2.0~3,6~.0~19,24~]pentacosa[16,18,24]trien]-15′-one 13′,13′-dioxide] | 1.66 | 2560
CC[C@@H]1CCCC[C@@](O)(COC)[C@@H]2CC[C@H]2CN2C[C@@]3(CCCc4cc(Cl)ccc43)COc3ccc(cc32)C(=O)NS1(=O)=O [Example 100039, (1S,3′R,6′R,7′S,12′R)-6-chloro-12′-ethyl-7′-hydroxy-7′-(methoxymethyl)-3,4-dihydro-2H,15′H-spiro[naphthalene-1,22′-[20]oxa[13]thia[1,14]diazatetracyclo [14.7.2.0~3,6~.0~19,24~]pentacosa[16,18,24]trien]-15′-one 13′,13′-dioxide] | 0.563 | 744
CC[C@@H]1CCCC[C@](O)(COC)[C@@H]2CC[C@H]2CN2C[C@@]3(CCCc4cc(Cl)ccc43)COc3ccc(cc32)C(=O)NS1(=O)=O [Example 100040, (1S,3′R,6′R,7′R,12′R)-6-chloro-12′-ethyl-7′-hydroxy-7′-(methoxymethyl)-3,4-dihydro-2H,15′H-spiro[naphthalene-1,22′-[20]oxa[13]thia[1,14]diazatetracyclo [14.7.2.0~3,6~.0~19,24~]pentacosa[16,18,24]trien]-15′-one 13′,13′-dioxide] | 2.75 | 4950
CC[C@@H]1CCCC[C@](CO)(OC)[C@@H]2CC[C@H]2CN2C[C@@]3(CCCc4cc(Cl)ccc43)COc3ccc(cc32)C(=O)NS1(=O)=O [Example 100041, (1S,3′R,6′R,7′S,12′R)-6-chloro-12′-ethyl-7′-(hydroxymethyl)-7′-methoxy-3,4-dihydro-2H,15′H-spiro[naphthalene-1,22′-[20]oxa[13]thia[1,14]diazatetracyclo [14.7.2.0~3,6~.0~19,24~]pentacosa[16,18,24]trien]-15′-one 13′,13′-dioxide] | 3.36 | 4990
